Measurements reported in patent US6444617B1, “Fused-heterocycle dicarboxylic acid diamide derivatives or salts thereof, herbicide and usage thereof” (Nihon Nohyaku Co., Ltd., priority 1998, dated 2002).

Tests used:
Assay type in all cases: in vivo
[1] = system: barnyard grass (Echinochloa crus-galli Beauv.), Ec; assay: Test Example 4: herbicidal effect on upland weeds after emergence; settings: dosage 5 kg/ha; sprayed after emergence; judged 14 days after treatment
Summary of the method: (§1)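 Weeds and soybean grown in soil-filled vats to set leaf stages, then sprayed post-emergence with the compound at a prescribed concentration. Weed-killing rate and crop phytotoxicity judged 14 days after treatment.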

[2] = system: velvetleaf (Abutilon theophtasti L.), At; assay: as above; settings: dosage 5 kg/ha; sprayed after emergence; judged 14 days after treatment
Summary of the method: as §1

[3] = system: forxtail grass (Alopecurus aequalis var. amurensis Ohwi), Am; assay: as above; settings: dosage 5 kg/ha; sprayed after emergence; judged 14 days after treatment
Summary of the method: as §1

[4] = system: cleavers (Galium aparine L.), Ga; assay: as above; settings: dosage 5 kg/ha; sprayed after emergence; judged 14 days after treatment
Summary of the method: as §1

[5] = system: cocklebur (Xanthium strumarium L.), Xs; assay: as above; settings: dosage 5 kg/ha; sprayed after emergence; judged 14 days after treatment
Summary of the method: as §1

[6] = system: bird's eye speedwell (Veronica persica Poir.), Vp; assay: as above; settings: dosage 5 kg/ha; sprayed after emergence; judged 14 days after treatment
Summary of the method: as §1

[7] = system: wheat; assay: Test Example 4: phytotoxicity to upland crop plants, treatment after emergence; settings: dosage 5 kg/ha, sprayed after emergence, judged 14 days after treatment
Summary of the method: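 Upland weeds and crop plants (soybean, wheat) are grown from seed in soil until they reach given leaf stages, then treated by spraying with the compound-containing agent; effects are judged two weeks later.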

[8] = system: soybean plant; assay: as above; settings: dosage 5 kg/ha, sprayed after emergence, judged 14 days after treatment
Summary of the method: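 Seeds sown in soil and covered. Plants raised to specified leaf stages. Agent with test compound at a prescribed concentration sprayed. Herbicidal effect and crop damage scored after 14 days as weed-killing rate.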

[9] = system: barnyard grass (Echinochloa crus-galli Beauv.), Ec; assay: Test Example 3: herbicidal effect on upland weeds before emergence; settings: dosage 5 kg/ha
Summary of the method: (§2)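 Herbicidal activity was rated from kill rate determined 14 days post-spray, the compound having been applied pre-emergence as a liquid agent.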

[10] = system: velvetleaf (Abutilon theophtasti L.), At; assay: as above; settings: dosage 5 kg/ha
Summary of the method: as §2

[11] = system: forxtail grass (Alopecurus aequalis var. amurensis Ohwi), Am; assay: as above; settings: foxtail grass, dosage 5 kg/ha
Summary of the method: as §2

[12] = system: cleavers (Galium aparine L.), Ga; assay: as above; settings: dosage 5 kg/ha
Summary of the method: as §2

[13] = system: cocklebur (Xanthium strumarium L.), Xs; assay: as above; settings: dosage 5 kg/ha
Summary of the method: as §2

[14] = system: bird's eye speedwell (Veronica persica Poir.), Vp; assay: as above; settings: dosage 5 kg/ha
Summary of the method: as §2

[15] = system: barnyard grass (Echinochloa crus-galli Beauv.); assay: Test Example 2: herbicidal effect on paddy field weeds after emergence; settings: Dosage 5 kg/ha; one-leaved stage; 21 days after treatment
Summary of the method: (§3)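 Weeds in flooded paddy-soil pots were grown to the one-leaved stage, then the soil was treated with the compound solution at a set dosage.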

[16] = system: bulrush (Scirpus juncoides Roxb.); assay: as above; settings: Dosage 5 kg/ha; one-leaved stage; 21 days after treatment
Summary of the method: as §3

[17] = system: monochoria (Monochoria vaginalis Presl); assay: as above; settings: Dosage 5 kg/ha; one-leaved stage; 21 days after treatment
Summary of the method: as §3

[18] = system: barnyard grass (Echinochloa crus-galli Beauv.); assay: Test Example 1: herbicidal effect on paddy field weeds before emergence; settings: Dosage 5 kg/ha
Summary of the method: (§4)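 Grading reflects percent control relative to untreated plots, evaluated three weeks post-application. Treatment was a soil application of compound solution, predetermined dose, made to paddy-state pots before weed seeds germinated.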

[19] = system: bulrush (Scirpus juncoides Roxb.); assay: as above; settings: Dosage 5 kg/ha
Summary of the method: as §4

[20] = system: wheat (Wh); assay: Test Example 3: phytotoxicity to upland crop plants, treatment before emergence; settings: dosage 5 kg/ha
Summary of the method: (§5)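 Pre-emergence spray of a liquid preparation at a prescribed compound concentration. Soybean and wheat injury was scored against a phytotoxicity criterion 14 days after treatment, alongside weed control.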

[21] = system: soybean plant (So); assay: as above; settings: dosage 5 kg/ha
Summary of the method: as §5

Row | Structure (SMILES) | Herbicidal effect Ec [1] | Herbicidal effect At [2] | Herbicidal effect Am [3] | Herbicidal effect Ga [4] | Herbicidal effect Xs [5] | Herbicidal effect Vp [6] | Phytotoxicity Wh [7] | Phytotoxicity So [8] | Herbicidal effect Ec [9] | Herbicidal effect At [10] | Herbicidal effect Am [11] | Herbicidal effect Ga [12] | Herbicidal effect Xs [13] | Herbicidal effect Vp [14] | Post-emergence treatment Barnyard grass (herbicidal effect) [15] | Post-emergence treatment Bulrush (herbicidal effect) [16] | Post-emergence treatment Monochoria (herbicidal effect) [17] | Pre-emergence treatment Barnyard grass (herbicidal effect) [18] | Pre-emergence treatment Bulrush (herbicidal effect) [19] | Phytotoxicity Wh [20] | further results
1 | CCCNC(=O)c1nc2c(cnn2C)cc1C(=O)Nc1c(CC)ccc(Cl)c1CC [compound 1088] | 5 (Weed-killing rate is 100%.) | 5 (Weed-killing rate is 100%.) | 5 (Weed-killing rate is 100%.) | 5 (Weed-killing rate is 100%.) | 5 (Weed-killing rate is 100%.) | 5 (Weed-killing rate is 100%.) | 5 (Crop-killing rate is 100%.) | 5 (Crop-killing rate is 100%.) | 5 (Weed-killing rate is 100%.) | 5 (Weed-killing rate is 100%.) | 5 (Weed-killing rate is 100%.) | 5 (Weed-killing rate is 100%.) | 5 (Weed-killing rate is 100%.) | 5 (Weed-killing rate is 100%.) | 5 (Weed-killing rate is 100%.) | 5 (Weed-killing rate is 100%.) | 5 (Weed-killing rate is 100%.) | 5 (Weed-killing rate is 100%.) | 5 (Weed-killing rate is 100%.) | 5 (Crop-killing rate is 100%.) | Phytotoxicity So [21]: 5 (Crop-killing rate is 100%.)
2 | CCCNC(=O)c1nc2c(cc1C(=O)Nc1c(CC)ccc(Cl)c1CC)c(C)nn2C [compound 1112] | 5 (Weed-killing rate is 100%.) | 5 (Weed-killing rate is 100%.) | 5 (Weed-killing rate is 100%.) | 5 (Weed-killing rate is 100%.) | 5 (Weed-killing rate is 100%.) | 5 (Weed-killing rate is 100%.) | 5 (Crop-killing rate is 100%.) | 5 (Crop-killing rate is 100%.) | 5 (Weed-killing rate is 100%.) | 5 (Weed-killing rate is 100%.) | 5 (Weed-killing rate is 100%.) | 5 (Weed-killing rate is 100%.) | 5 (Weed-killing rate is 100%.) | 5 (Weed-killing rate is 100%.) | 5 (Weed-killing rate is 100%.) | 5 (Weed-killing rate is 100%.) | 5 (Weed-killing rate is 100%.) | 5 (Weed-killing rate is 100%.) | 5 (Weed-killing rate is 100%.) | 5 (Crop-killing rate is 100%.) | Phytotoxicity So [21]: 5 (Crop-killing rate is 100%.)
3 | CCCNC(=O)c1nc2nn(C)cc2cc1C(=O)Nc1c(CC)ccc(Cl)c1CC [compound 1124] | 5 (Weed-killing rate is 100%.) | 5 (Weed-killing rate is 100%.) | 5 (Weed-killing rate is 100%.) | 5 (Weed-killing rate is 100%.) | 5 (Weed-killing rate is 100%.) | 5 (Weed-killing rate is 100%.) | 5 (Crop-killing rate is 100%.) | 5 (Crop-killing rate is 100%.) | 5 (Weed-killing rate is 100%.) | 5 (Weed-killing rate is 100%.) | 5 (Weed-killing rate is 100%.) | 5 (Weed-killing rate is 100%.) | 5 (Weed-killing rate is 100%.) | 5 (Weed-killing rate is 100%.) | 5 (Weed-killing rate is 100%.) | 5 (Weed-killing rate is 100%.) | 5 (Weed-killing rate is 100%.) | 5 (Weed-killing rate is 100%.) | 5 (Weed-killing rate is 100%.) | 5 (Crop-killing rate is 100%.) | Phytotoxicity So [21]: 5 (Crop-killing rate is 100%.)
